Where a name gives a salt, the structure may show the parent alone.

For one data set, the system named is souris. The data set is described as follows: Acute toxicity, lethal dose DL0 after oral administration. The settings on record: mouse, maximal dose causing no mortality in 8 days. It counts as in vivo. The source says:
4) Etude de la toxicité aiguë
On a évalué les doses létales DLo des différents composés testés après administration par voie orale chez la souris.
On appelle DLo la dose maximale ne provoquant aucune mortalité en 8 jours.
The compound `N[C@@H]1CC2CNc3cccc(c32)[C@H]1O` (mixture of isomers) [Exemple 1, dichlorhydratede trans 4RS 4-amino 1,2,2a.3,4,5-hexahydro benz(c,d) indol-5-0l] returned a DL0 above 400 mg/kg. Same read-out and setting: as for `CN[C@@H]1CC2CNc3cccc(c32)[C@H]1O` (mixture of isomers) [Exemple 2, Fumarate neutrede trans 4RS 4-(méthylamino) 1,2,2a,3,4,5-hexahydro benz(c,d) indol-5-0l], the figure is above 800 mg/kg; as for `CCN[C@@H]1CC2CNc3cccc(c32)[C@H]1O` (mixture of isomers) [Exemple 3, Fumarate neutrede trans 4RS 4-(éthylamino) 1,2,2a,3,4,5-hexahydro benz(c,d) indol-5-ol], above 400 mg/kg; as for `CN[C@@H]1Cc2c[nH]c3cccc(c23)[C@H]1O` (racemic) [Exemple 7, Chlorhydratede trans 4RS 4-(méthylamino) 1,3,4,5-tétrahydro benz(c,d) indol-5-0l], above 400 mg/kg.

In turn, `CCN[C@@H]1Cc2c[nH]c3cccc(c23)[C@H]1O` (racemic) [Exemple 8, Chlorhydratede trans 4RS 4-(éthylamino) 1,3,4,5-tétrahydro benz(c,d) indol-5-0l] returned a DL0 of 80 mg/kg. On the same count and under the same terms, then `CCCN[C@@H]1Cc2c[nH]c3cccc(c23)[C@H]1O` (racemic) [Exemple 9, Chlorhydratede trans 4RS 4-(propylamino) 1,3,4,5-tétrahydro benz(c,d) indol-5-0l], with 60 mg/kg; and `CC(C)N[C@@H]1Cc2c[nH]c3cccc(c23)[C@H]1O` (racemic) [Exemple 10, Chlorhydratede trans 4RS 4-(isopropylamino) 1,3,4,5-tétrahydro benz(c,d) indol-5-0l], with 100 mg/kg. The same measure, in the same setting: as for “trans 4RS 4-(isopropylamino) 1,,2a,3,4,5-hexahydrobenz(c,d) indol-5-ol [Exemple 5]”, the figure is 200 mg/kg; as for “trans 4RS 4-(propylamino) 1,2,2a,3,4,5-hexahydrobenz(c,d) indol-5--ol [Exemple 4]”, 200 mg/kg.

The test system of the next data set is rats mâles de souche WISTAR. The data set is described as follows: Hypotensive activity in anaesthetised rats (carotid arterial pressure, intravenous administration). It counts as in vivo. The following applies: dose 0,1 mg/kg, anaesthetised Wistar rat, versus initial control pressure. Here is the method:
1) Détermination de l'activité hypotensive
L'activité hypotensive a été étudiée sur des rats mâles de souche WISTAR pesant 300 g environ et anesthésiés au nembutal (50 mg/kg par voie intraveineuse).
Le produit testé a été administré par voie intraveineuse dans la veine jugulaire.
La pression artérielle càrotidienne a été mesurée avant et après administration du produit testé.
Le tableau ci-après indique les variations exprimées en pourcentage de la pression artérielle après- administration du produit testé par rapport à la pression artérielle témoin initiale.
For `CCN[C@@H]1Cc2c[nH]c3cccc(c23)[C@H]1O` (racemic) [Exemple 8, Chlorhydratede trans 4RS 4-(éthylamino) 1,3,4,5-tétrahydro benz(c,d) indol-5-0l], the “Variation % de la pression artérielle 30 minutes après l'administration” value is -13%.

Staying with this data set, now noted: dose 1 mg/kg, anaesthetised Wistar rat, versus initial control pressure.
For `CCCN[C@@H]1Cc2c[nH]c3cccc(c23)[C@H]1O` (racemic) [Exemple 9, Chlorhydratede trans 4RS 4-(propylamino) 1,3,4,5-tétrahydro benz(c,d) indol-5-0l], the “Variation % de la pression artérielle 30 minutes après l'administration” value is -30%. On the same count and under the same terms, as for `CC(C)N[C@@H]1Cc2c[nH]c3cccc(c23)[C@H]1O` (racemic) [Exemple 10, Chlorhydratede trans 4RS 4-(isopropylamino) 1,3,4,5-tétrahydro benz(c,d) indol-5-0l], the figure is -24%.
